Reference: patent US20130287856A1, “Drug Delivery Dispersion And Film Formed Therefrom” (priority 2010, published 2013)

Experiment: Extractable percent of unreacted silicone, second evaluation (cure rate with active agents)
Format: physicochemical
Conditions: for Cure Rate After 3 Min. (%) / Cure Rate After 120 Min. (%): active agent added to Dispersion 1 aged 1 week at 45° C., slope of extractable plot, lower values = higher reactivity; for effect of active agent on cure (in words): active agent in Dispersion 1, after 120 minutes
Experimental: After ageing, the samples are spread out onto silicon free Glassine paper and the water is allowed to evaporate such that the vinyl PDMS and SiH siloxane reaction and form films. More specifically, about 2 grams of each sample is spread using a 1.2 g/m^2 bar equipped with an automatic film application (type 4340 from Braive Instruments). At times from zero to 120 minutes, the percent of vinyl PDMS and SiH siloxane is determined using 30 ml of methylisobutyl ketone (MIBK). Additionally, silicone concentration on the Glassine paper resulting from reacted vinyl PDMS and SiH siloxane is determined by XRF using an Oxford Lab X-3000. The percent unreacted/extractable vinyl PDMS and SiH siloxane is plotted in an extractable plot set forth as FIG. 3. Additional samples of Dispersion 1 are aged for 1 week at 45° C. […] At this point, films are formed from these samples to determine an effect of the active agents on curing and reaction of the vinyl PDMS and SiH siloxane. More specifically, for these samples, an additional extractable plot is generated (not shown in the Figures) using the same method as described above. […] The results of these evaluations are set forth in Table 1 immediately below with lower values representing higher reactivity.

| Cure Rate After 3 Min. (%) | Cure Rate After 120 Min. (%) | effect of active agent on cure (in words) | Compound |
| --- | --- | --- | --- |
| 16.4 | 3.3 |  | [Cl][Ag] [AgCl] |
| 25.7 | 5.4 |  | Clc1ccccc1C(c1ccccc1)(c1ccccc1)n1ccnc1 [Clotrimazol, clotrimazol] |
| 43.3 | 21.8 | slight inhibition of the cure | O=C(O)c1cccnc1 [Vitamin B3, vitamin B3] |
| 36.5 | 12.1 | slight inhibition of the cure | O=C(O)c1ccccc1O [Salicylic acid, salicylic acid] |
| 18.4 | 4.8 |  | CC(C)(CO)[C@@H](O)C(=O)NCCCO [Dexpanthenol, dexpanthenol] |

| Compound | Cure Rate After 3 Min. (%) | Cure Rate After 120 Min. (%) | effect of active agent on cure (in words) |
| --- | --- | --- | --- |
| Cn1c(=O)c2c(ncn2C)n(C)c1=O [Caffeine, caffeine] | 31.7 | 8.5 |  |
| CCN(CC)CC(=O)Nc1c(C)cccc1C [Lidocaine, lidocaine] | 21.1 | 4.9 |  |
